# US7704699B2, “Method for the characterization of the three-dimensional structure of proteins employing mass spectrometric analysis and computational feedback modeling” (H-NU OPS, Inc., priority 1993, dated 2010)
# Test system: cytochrome c; horse tuna and yeast
# Test: ES-MS study of non-covalent interactions of crown ethers with three types of cytochrome c (rank order)
# Type: binding
# Conditions: rank among the three crown ethers, all three cytochrome c types
# Procedure: […]; horse tuna and yeast, utilizing the ES probe 50 and method of this invention.
# More particularly, the experiments showing binding of crowns to cytochrome c were done by adding 1, 2, and 3 mol ratios to a 70 pmol/μL mixture of the three different cytochrome c's. The solutions were prepared with equal parts of methanol/water with 1% acetic acid. Typical sample conditions were, 95° C., 2 μL/min, 4000 VDC on the syringe, 170 VDC on the capillary tube, and 60 VDC on the skimmer.
row,Compound,relative tightness of binding to cytochrome c
1,"c1ccc2c(c1)OCCOCCOc1ccccc1OCCOCCO2 [Dibenzo-18-Crown-6, dibenzo-18-crown-6]",binding the least tightly
2,"C1CCC2OCCOCCOC3CCCCC3OCCOCCOC2C1 (centres unmarked) [Dicyclohexano-18-Crown-6, dicyclohexano-18-crown-6]",binding the most tightly
